Assay results from PubChem BioAssay (NCI).
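48-hour exposure; five concentrations; linearly interpolated endpoints. The concentration for 50% growth inhibition is given as GI50. TGI: total growth inhibition.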

Tests used:
Test in all cases: DTP human tumour cell line panel, 48 h
786-0 renal = tested on: 786-0 renal
A498 renal = tested on: A498 renal
A549 NSCLC = tested on: A549 NSCLC
ACHN renal = tested on: ACHN renal
BT-549 breast = tested on: BT-549 breast
CAKI-1 renal = tested on: CAKI-1 renal
CCRF-CEM leukemia = tested on: CCRF-CEM leukemia
COLO 205 colon = tested on: COLO 205 colon
DU-145 prostate = tested on: DU-145 prostate
EKVX NSCLC = tested on: EKVX NSCLC
HCC-2998 colon = tested on: HCC-2998 colon
HCT-116 colon = tested on: HCT-116 colon
HCT-15 colon = tested on: HCT-15 colon
HL-60(TB) leukemia = tested on: HL-60(TB) leukemia
HOP-62 NSCLC = tested on: HOP-62 NSCLC
HOP-92 NSCLC = tested on: HOP-92 NSCLC
HS 578T breast = tested on: HS 578T breast
HT29 colon = tested on: HT29 colon
IGROV1 ovarian = tested on: IGROV1 ovarian
K-562 leukemia = tested on: K-562 leukemia
KM12 colon = tested on: KM12 colon
LOX IMVI melanoma = tested on: LOX IMVI melanoma
M14 melanoma = tested on: M14 melanoma
MALME-3M melanoma = tested on: MALME-3M melanoma
MCF7 breast = tested on: MCF7 breast
MDA-MB-231 breast = tested on: MDA-MB-231 breast
MDA-MB-435 = tested on: MDA-MB-435
MOLT-4 leukemia = tested on: MOLT-4 leukemia
NCI-H226 lung = tested on: NCI-H226 lung
NCI-H23 lung = tested on: NCI-H23 lung
NCI-H460 lung = tested on: NCI-H460 lung
NCI-H522 lung = tested on: NCI-H522 lung
NCI/ADR-RES ovarian = tested on: NCI/ADR-RES ovarian
OVCAR-3 ovarian = tested on: OVCAR-3 ovarian
OVCAR-4 ovarian = tested on: OVCAR-4 ovarian
OVCAR-5 ovarian = tested on: OVCAR-5 ovarian
OVCAR-8 ovarian = tested on: OVCAR-8 ovarian
PC-3 prostate = tested on: PC-3 prostate
RPMI-8226 leukemia = tested on: RPMI-8226 leukemia
RXF 393 renal = tested on: RXF 393 renal
SF-268 CNS = tested on: SF-268 CNS
SF-295 CNS = tested on: SF-295 CNS
SF-539 CNS = tested on: SF-539 CNS
SK-MEL-2 melanoma = tested on: SK-MEL-2 melanoma
SK-MEL-28 melanoma = tested on: SK-MEL-28 melanoma
SK-MEL-5 melanoma = tested on: SK-MEL-5 melanoma
SK-OV-3 ovarian = tested on: SK-OV-3 ovarian
SN12C renal = tested on: SN12C renal
SNB-19 CNS = tested on: SNB-19 CNS
SNB-75 CNS = tested on: SNB-75 CNS
SR leukemia = tested on: SR leukemia
SW-620 colon = tested on: SW-620 colon
T-47D breast = tested on: T-47D breast
TK-10 renal = tested on: TK-10 renal
U251 CNS = tested on: U251 CNS
UACC-257 melanoma = tested on: UACC-257 melanoma
UACC-62 melanoma = tested on: UACC-62 melanoma
UO-31 renal = tested on: UO-31 renal

Molecule `COC(=O)c1ccc2[nH]c(O)c(C(=Nc3ccc(N(C)C(=O)CN4CCN(C)CC4)cc3)c3cccc(OC)c3)c2c1` has a GI50 (786-0 renal) of 0.825 µM, a TGI (786-0 renal) of 2.38 µM and a GI50 (A498 renal) of 1.26 µM. For the same molecule, the TGI (A498 renal) was 2.61 µM, the GI50 (A549 NSCLC) was 1.39 µM and the TGI (A549 NSCLC) was 6.42 µM. It also gave a GI50 (ACHN renal) of 2.14 µM, a TGI (ACHN renal) of 7.99 µM and a GI50 (BT-549 breast) of 1.39 µM. For the same molecule, the TGI (BT-549 breast) was 3.47 µM, the GI50 (CAKI-1 renal) was 0.373 µM and the TGI (CAKI-1 renal) was 3.38 µM. For the same molecule, the GI50 (CCRF-CEM leukemia) was 0.447 µM, the TGI (CCRF-CEM leukemia) was 6.83 µM and the GI50 (COLO 205 colon) was 0.395 µM. It also gave a TGI (COLO 205 colon) of 1.8 µM, a GI50 (DU-145 prostate) of 1.89 µM and a TGI (DU-145 prostate) of 9.32 µM. It also gave a GI50 (EKVX NSCLC) of 2.04 µM, a TGI (EKVX NSCLC) of 6.77 µM and a GI50 (HCC-2998 colon) of 1.65 µM. It also gave a TGI (HCC-2998 colon) of 4.98 µM, a GI50 (HCT-116 colon) of 0.21 µM and a TGI (HCT-116 colon) of 4.66 µM. The GI50 (HCT-15 colon) was 1.9 µM, the TGI (HCT-15 colon) was 7.04 µM and the GI50 (HL-60(TB) leukemia) was 0.583 µM. For the same molecule, the TGI (HL-60(TB) leukemia) was 2.51 µM, the GI50 (HOP-62 NSCLC) was 1.21 µM and the TGI (HOP-62 NSCLC) was 4.78 µM. It also gave a GI50 (HOP-92 NSCLC) of 2.98 µM, a TGI (HOP-92 NSCLC) of 10.9 µM and a GI50 (HS 578T breast) of 0.213 µM. For the same molecule, the TGI (HS 578T breast) was 4.13 µM, the GI50 (HT29 colon) was 0.89 µM and the TGI (HT29 colon) was 13.1 µM. For the same molecule, the GI50 (IGROV1 ovarian) was 0.191 µM, the TGI (IGROV1 ovarian) was 2.19 µM and the GI50 (K-562 leukemia) was 0.107 µM. The TGI (K-562 leukemia) was 4.37 µM, the GI50 (KM12 colon) was 0.0419 µM and the TGI (KM12 colon) was 4.49 µM. It also gave a GI50 (LOX IMVI melanoma) of 0.654 µM, a TGI (LOX IMVI melanoma) of 2.3 µM and a GI50 (M14 melanoma) of 0.921 µM. The TGI (M14 melanoma) was 2.41 µM, the GI50 (MALME-3M melanoma) was 1.49 µM and the TGI (MALME-3M melanoma) was 2.96 µM. The GI50 (MCF7 breast) was 0.353 µM, the TGI (MCF7 breast) was 1.93 µM and the GI50 (MDA-MB-231 breast) was 1.31 µM. For the same molecule, the TGI (MDA-MB-231 breast) was 3.27 µM, the GI50 (MDA-MB-435) was 1.48 µM and the TGI (MDA-MB-435) was 3.86 µM. It also gave a GI50 (MOLT-4 leukemia) of 0.392 µM, a TGI (MOLT-4 leukemia) of 3.26 µM and a GI50 (NCI-H226 lung) of 1.08 µM. It also gave a TGI (NCI-H226 lung) of 5.93 µM, a GI50 (NCI-H23 lung) of 1.05 µM and a TGI (NCI-H23 lung) of 3.48 µM. It also gave a GI50 (NCI-H460 lung) of 1.41 µM, a TGI (NCI-H460 lung) of 3.44 µM and a GI50 (NCI-H522 lung) of 1.03 µM. For the same molecule, the TGI (NCI-H522 lung) was 3.89 µM, the GI50 (NCI/ADR-RES ovarian) was 12.4 µM and the TGI (NCI/ADR-RES ovarian) was 34 µM. It also gave a GI50 (OVCAR-3 ovarian) of 0.96 µM, a TGI (OVCAR-3 ovarian) of 2.57 µM and a GI50 (OVCAR-4 ovarian) of 0.96 µM. For the same molecule, the TGI (OVCAR-4 ovarian) was 2.84 µM, the GI50 (OVCAR-5 ovarian) was 2.29 µM and the TGI (OVCAR-5 ovarian) was 5.46 µM. For the same molecule, the GI50 (OVCAR-8 ovarian) was 1.22 µM, the TGI (OVCAR-8 ovarian) was 9.91 µM and the GI50 (PC-3 prostate) was 0.631 µM. For the same molecule, the TGI (PC-3 prostate) was 5.87 µM, the GI50 (RPMI-8226 leukemia) was 1.02 µM and the TGI (RPMI-8226 leukemia) was 3.55 µM. For the same molecule, the GI50 (RXF 393 renal) was 0.549 µM, the TGI (RXF 393 renal) was 1.87 µM and the GI50 (SF-268 CNS) was 1.48 µM. The TGI (SF-268 CNS) was 4.08 µM, the GI50 (SF-295 CNS) was 1.12 µM and the TGI (SF-295 CNS) was 2.63 µM. It also gave a GI50 (SF-539 CNS) of 0.463 µM, a TGI (SF-539 CNS) of 1.69 µM and a GI50 (SK-MEL-2 melanoma) of 1.89 µM. For the same molecule, the TGI (SK-MEL-2 melanoma) was 4.51 µM, the GI50 (SK-MEL-28 melanoma) was 1.71 µM and the TGI (SK-MEL-28 melanoma) was 3.77 µM. It also gave a GI50 (SK-MEL-5 melanoma) of 1.43 µM, a TGI (SK-MEL-5 melanoma) of 2.78 µM and a GI50 (SK-OV-3 ovarian) of 0.198 µM. The TGI (SK-OV-3 ovarian) was 1.88 µM, the GI50 (SN12C renal) was 0.346 µM and the TGI (SN12C renal) was 10.8 µM. It also gave a GI50 (SNB-19 CNS) of 1.64 µM, a TGI (SNB-19 CNS) of 8.4 µM and a GI50 (SNB-75 CNS) of 0.112 µM. The TGI (SNB-75 CNS) was 1.78 µM, the GI50 (SR leukemia) was 0.231 µM and the TGI (SR leukemia) was 4.52 µM. For the same molecule, the GI50 (SW-620 colon) was 0.429 µM, the TGI (SW-620 colon) was 4.95 µM and the GI50 (T-47D breast) was 1.28 µM. It also gave a TGI (T-47D breast) of 9.34 µM, a GI50 (TK-10 renal) of 1.61 µM and a TGI (TK-10 renal) of 3.78 µM. The GI50 (U251 CNS) was 1.15 µM, the TGI (U251 CNS) was 3 µM and the GI50 (UACC-257 melanoma) was 2.01 µM. It also gave a TGI (UACC-257 melanoma) of 4.64 µM, a GI50 (UACC-62 melanoma) of 2.14 µM and a TGI (UACC-62 melanoma) of 4.52 µM. It also gave a GI50 (UO-31 renal) of 1.54 µM and a TGI (UO-31 renal) of 4.05 µM.
